Measured values published in ChEMBL document CHEMBL1159177, “Novel A-ring cleaved analogs of oleanolic and ursolic acids which affect growth regulation in NRP.152 prostate cells” (Bioorg Med Chem Lett, 1997).

Experiment: In vitro inhibitory concentration against cell proliferation of nonmalignant, nontumerigenic prostate cells (NRP.152)
Assay type: functional, cell-based
Conditions: Rattus norvegicus

| Compound | IC50 [µM] |
| --- | --- |
| CC1(C)CC[C@]2(C(=O)O)CC[C@]3(C)C(=CC[C@@H]4[C@@]5(C)CC[C@H](O)C(C)(C)[C@@H]5CC[C@]43C)[C@@H]2C1 [OLEANOLIC_ACID] | > 5 |
| C[C@@H]1CC[C@]2(C(=O)O)CC[C@]3(C)C(=CC[C@@H]4[C@@]5(C)CC[C@H](O)C(C)(C)[C@@H]5CC[C@]43C)C2[C@H]1C (some centres not stated) | > 5 |
| C[C@@H]1CC[C@]2(C(=O)O)CC[C@]3(C)C(=CC[C@@H]4[C@@]5(C)CCC(=O)C(C)(C)[C@@H]5CC[C@]43C)C2[C@H]1C (some centres not stated) | > 5 |
| CC(C)[C@@H]1CC[C@]2(C)[C@H](CC=C3C4[C@@H](C)[C@H](C)CC[C@]4(C(=O)O)CC[C@]32C)[C@@]1(C)CCCN (some centres not stated) | 0.3 |
| C=C(C)[C@@H]1CC[C@]2(C)[C@H](CC=C3C4CC(C)(C)CC[C@]4(C(=O)O)CC[C@]32C)[C@@]1(C)CCC(=O)O (some centres not stated) | > 5 |
| CC1(C)CC[C@]2(C(=O)O)CC[C@]3(C)C(=CC[C@@H]4[C@@]5(C)CCC(=O)C(C)(C)[C@@H]5CC[C@]43C)[C@@H]2C1 [OLEANONIC ACID] | > 5 |
| CC(C)[C@@H]1CC[C@]2(C)[C@H](CC=C3C4CC(C)(C)CC[C@]4(C(=O)O)CC[C@]32C)[C@@]1(C)CCCN (some centres not stated) | 0.7 |
| C=C(C)[C@@H]1CC[C@]2(C)[C@H](CC=C3C4CC(C)(C)CC[C@]4(C(=O)O)CC[C@]32C)[C@@]1(C)CCC#N (some centres not stated) | 3.8 |
| C=C(C)[C@@H]1CC[C@]2(C)[C@H](CC=C3C4CC(C)(C)CC[C@]4(C(=O)O)CC[C@]32C)[C@@]1(C)CCC=O (some centres not stated) | 1.5 |
| C=C(C)[C@@H]1CC[C@]2(C)[C@H](CC=C3C4[C@@H](C)[C@H](C)CC[C@]4(C(=O)O)CC[C@]32C)[C@@]1(C)CCC=O (some centres not stated) | 2.4 |
| C=C(C)[C@@H]1CC[C@]2(C)[C@H](CC=C3C4[C@@H](C)[C@H](C)CC[C@]4(C(=O)O)CC[C@]32C)[C@@]1(C)CCC(=O)O (some centres not stated) | > 5 |
| C=C(C)[C@@H]1CC[C@]2(C)[C@H](CC=C3C4[C@@H](C)[C@H](C)CC[C@]4(C(=O)O)CC[C@]32C)[C@@]1(C)CCC#N (some centres not stated) | > 5 |
